Laboratory results: patent publication US20250388571A1, “AMP-ACTIVATED PROTEIN KINASE MODULATOR COMPOUNDS AND USES THEREOF” (Biolexis Therapeutics, Inc., priority 2024, published 2025)
Where two headings read alike, the source gives them in different places.

Experiments:
[1] = system: AMPK signal pathway in HSKM cells; experiment: Western blot assay, HSKM cells; type: cell-based, human
[2] = system: AMPK signal pathway in human cardiac myocytes (HCM); experiment: Western blot assay, human cardiomyocytes; type: cell-based
[3] = PK oral bioavailability experiment, rat; type: in vivo, male Wistar rat
Method: A total of 18 male Wistar rats were allotted for the study. Animals were allotted in to 2 groups of 9 rat per each group. In each group, first set of three animals were used for PK study, next set of three and followed by other set of three animals were used for 0.5 h and 1 h brain, CSF, and blood collection purpose for intravenous and oral groups, respectively. On day of dosing all the animals were fasted overnight.
Approximately 0.3 mL of blood sample from each animal was collected via jugular vein at predetermined time points at 0.083 (only IV), 0.25, 0.5, 1, 2, 4, 6, 8 and 24 h intervals in pre-labeled Eppendorf tubes containing anticoagulant K2EDTA (20 μL per mL of blood). Blood sample was centrifuged at 5000 rpm for 10 min under refrigeration (2-4° C.) to obtain plasma. For brain and CSF uptake study, after 0.5 h and 1 h CSF and whole brain was withdrawn, and brain tissue was homogenized as a terminal sampling. Blood samples were centrifuged under refrigeration (2-4° C.) within 0.5 h to obtain plasma. The separated plasma samples were collected in pre labeled tubes within 60 min of separation and stored at −20° C. up to 24 h. Post 24 h sample collection, all plasma samples were transferred to deep freezer custodian to store below or at −70° C. till shipment.
Brain tissues were blotted and dried and then transferred to 15 mL falcon tubes. Initially all tissue samples were stored at −20±3° C. Later, all brain tissue samples were homogenized with PBS at 1:4 ratio and the Brain homogenate was transferred to Deep freezer (−70±10° C.) and stored until bioanalysis.
The PK parameters were evaluated using Phoenix WinNonlin® Ent-Version 8.3 by non-compartmental analysis.

[4] = system: db/db mice; conditions: for Plasma Cholesterol / Plasma HDL / Plasma LDL / Plasma Triglyceride: end of the study; for Absolute Liver Weight / Absolute Liver Weight (g) [table follows b2014 on epididymal adipose tissue weight] / Relative Epididymal Tissue Weight / Relative Liver Weight: necropsy; for Fasting Plasma Glucose (mg/dL), OGTT: OGTT day 21, before glucose load 1 gram/kg
Method: The doses of the test item to be administered were calculated daily in mg/kg based on the latest bodyweight of the animal. The dose volume was calculated based on mg/kg of body weight and adjusted with each bodyweight collection. Dose and route of the test compounds administration are selected as per the supporting literature.
Male db/db mice were procured from The Jackson Laboratory. All the animals were allowed to quarantine for 7 days and acclimatize for one day prior to experiment initiation. During this period, mice were observed daily once for clinical signs. On Day 1, Animals were randomized based on body weight and blood glucose levels (Accu-Chek) into three groups. […] During the study period the body weight of mice was recorded weekly thrice, and clinical scoring was done on daily basis. The OGTT was performed on day 21. On day 36 blood was collected and centrifuged at 4° C., 10,000 RPM for 10 minutes for plasma collection. The plasma stored at −80° C. for estimation of plasma HDL and LDL. All the animals were humanely sacrificed by CO2. At the time of necropsy liver, adipose tissue and pancreas weight were taken. The liver and pancreas were stored at −80° C.
A mixture of DMSO (2%), Cremophor EL (2%), Tween 80 (1%), 0.5% methyl cellulose (35%), and water (60%) was used for the formulation. Doses were prepared at concentrations of 30 and 50 mg/kg. Administration was oral, daily for 36 days. Male mice (Mus musculus; db/db C57BL/6) aged 8-9 weeks and weighing less than or equal to 40 grams were used for the study. Groups were assigned 10 mice per group.
During the study period body weight of mice were recorded weekly thrice and clinical scoring were done on daily basis. The OGTT was performed on day 21. On day 36 blood was collected and centrifuged at 4° C., 10000 RPM for 10 minutes for plasma collection. The plasma stored at −80° C. for estimation of plasma HDL and LDL. All the animals were humanely sacrificed by CO2. At the time of necropsy liver, adipose tissue and pancreas weight were taken. Liver and pancreas were stored at −80° C.
Cage-side observations were made to detect any changes and general activity of the animals.
Body weight of each mouse was recorded at the time of randomization and thrice a week during study period. OGTT were done at day 21. On day 20 mice were fasted over night and on day 21 mice were treated with respective treatment-60 minute prior to glucose load 1 gram/kg. Plasma glucose was measured at 0 min (before glucose load), 15 min, 30 min, 60 min, 90 min and 120 min.
Glucose estimation in urine was done at terminal point on day 32. The urine of individual mice was collected by placing the mice in metabolic cages. Urine glucose levels were measured by calorimetric method in collected urine.
Plasma lipid profile: Triglyceride, HDL and LDL were performed at the end of the study by appropriate kit or using Fully Auto Biochemistry Analyzer Selectra PRO M Lite. Fat pad weight was recorded at terminal point. Fructosamine were measured by ELISA kit (Biomol, G-MOEB2562.96).
All data is expressed as mean±SEM unless otherwise noted. Statistical analysis was done with GraphPad Prism-5 using one-way ANOVA followed by Dunnett's test/Tukey's post hoc test. Data were considered statistically significant if P value is less than 0.05.

[5] = system: AMPK signal pathway in L6 cells; experiment: Western blot assay, L6 cells
Method: Samples for immunoblotting studies were prepared for electrophoresis by adding in a final concentration of 1× Laemmli loading buffer (supplemented with 5% 2-mercaptoethanol). Samples were then electrophorized by SDS-PAGE (4-15% or 4-20% Criterion TGX Precast gel, Bio-Rad) at a constant voltage within the range of 140V. Proteins were transferred to a nitrocellulose membrane (Bio-Rad) using the Trans-Blot Turbo transfer system (Bio-Rad). Membranes were blocked with 5% BSA in TBST for a minimum of 1 hour at room temperature before incubating with the following primary antibodies: • Phospho-AMPKα (Thr172) (40H9) Rabbit mAb (CST, cat no: 2535S), • AMPKα Antibody (CST, cat no: 2532S) • Phospho-Raptor (Ser792) Antibody (CST, cat no: 2083S) • Raptor (24C12) Rabbit mAb (CST, cat no: 2280S) • Phospho-Acetyl-CoA Carboxylase (Ser79) Antibody (CST, cat no: 3661S) • Acetyl-CoA Carboxylase Antibody (CST, cat no: 3662S) • AMPKα2 Antibody (CST, cat no: 2757S) • AMPKβ1 antibody (CST, cat no: 12063) • AMPKβ2 Antibody (CST, CST, cat no: 4148S) • AMPKγ3 Antibody (CST, cat no: 2550S). […]
After differentiation of cells (e.g., HSKM, C2C12, L6) for 5 days, medium was changed to DHEM without FBS and glucose for starving cells for 2 hours. […] The resultant reaction mixture was then assayed and semi-quantitative histogram analysis of Western Blotting (signal value) was used to determine results.

[6] = system: HCM cells; experiment: CyQUANT Cytotoxicity Assay (G6PD assay), HCM; conditions: treated 2 hours

Compound: O=c1[nH]c(-c2c[nH]c3cc(F)c(-c4ccc(C5(O)CCC5)cc4)c(F)c23)no1 [Compound I-11, 3-(4,6-difluoro-5-(4-(1-hydroxycyclobutyl)phenyl)-1H-indol-3-yl)-1,2,4-oxadiazol-5(4H)-one]
- AMPK isoform expression ([1]; HSKM cells): increased AMPKα2β1γ3 expression
- potency compared with reference compound MK-8722 (p-ACC, p-AMPK) ([1]; HSKM cells): more potency activity
- p-ACC and p-AMPK induction ([1]; HSKM cells, 1 hour): dosage-dependent manner
- p-AMPK, p-ACC, and p-Raptor expression ([1]; some high dosage groups, cell type not given): could induce
- p-ACC/p-AMPK and AMPKα2β2γ3 expression [2]: did not activate
- systemic exposure following oral administration ([3]; 5 mg/kg oral): low systemic exposure
- concentrations in brain tissue ([3]; 0.5 h and 1 h): no concentrations in brain tissue
- bioavailability ([3]; male, Wistar, plasma, 5 mg/kg oral vs 1 mg/kg intravenous): 6%
- Fasting Fructosamine ([4]; 30 mg/kg p.o. QD): 1164.8 ± 105.5 ng/mL
- Fasting Plasma HbA1c ([4]; 30 mg/kg p.o. QD): 60.13 ± 7.73 ng/mL
- Fasting Plasma Insulin ([4]; 30 mg/kg p.o. QD): 4.6 ± 0.5 ng/mL
- Fasting Blood Glucose (~12 hrs) ([4]; 30 mg/kg p.o. QD, Day 36): 335.70 ± 16.88 mg/dL
- Urine Glucose ([4]; 30 mg/kg p.o. QD, day 32): 1694.43 ± 10.56 mg/dL
- Plasma Cholesterol ([4]; 30 mg/kg p.o. QD): 118.13 ± 8.39 mg/dL
- Plasma HDL ([4]; 30 mg/kg p.o. QD): 145.41 ± 11.48 mg/dL
- Plasma LDL ([4]; 30 mg/kg p.o. QD): 23.58 ± 2.93 mg/dL
- Plasma Triglyceride ([4]; 30 mg/kg p.o. QD): 156.87 ± 17.41 mg/dL
- Absolute Liver Weight ([4]; 30 mg/kg p.o. QD): 2.34 ± 0.07 g
- Absolute Liver Weight (g) [table follows b2014 on epididymal adipose tissue weight] ([4]; 30 mg/kg p.o. QD): 2.42 ± 0.10 g
- Relative Epididymal Tissue Weight ([4]; 30 mg/kg p.o. QD): 0.057 ± 0.002 g
- Relative Liver Weight ([4]; 30 mg/kg p.o. QD): 0.055 ± 0.001 g
- 15 min Plasma Glucose (mg/dL), OGTT ([4]; 30 mg/kg, OGTT day 21): 676.20 ± 19.94 mg/dL
- 30 min Plasma Glucose (mg/dL), OGTT ([4]; 30 mg/kg, OGTT day 21): 619.54 ± 26.68 mg/dL
- 60 min Plasma Glucose (mg/dL), OGTT ([4]; 30 mg/kg, OGTT day 21): 520.87 ± 46.63 mg/dL
- 120 min Plasma Glucose (mg/dL), OGTT ([4]; 30 mg/kg, OGTT day 21): 397.78 ± 9.65 mg/dL
- glucose area under the curve (AUC), OGTT ([4]; 30 mg/kg, OGTT day 21): 61613.10 ± 2572.98 mg·min/dL
- Fasting Plasma Glucose (mg/dL), OGTT ([4]; 30 mg/kg): 287.70 ± 34.54 mg/dL
- decrease in the plasma glucose compared to vehicle control (OGTT) ([4]; 30 mg/kg, statistically not significant): 7.5%
- Fasting Fructosamine ([4]; 50 mg/kg p.o. QD): 954.2 ± 45.6 ng/mL
- Fasting Plasma HbA1c ([4]; 50 mg/kg p.o. QD): 39.82 ± 4.31 ng/mL
- Fasting Plasma Insulin ([4]; 50 mg/kg p.o. QD): 5.2 ± 0.8 ng/mL
- Plasma Cholesterol ([4]; 50 mg/kg p.o. QD): 97.30 ± 8.76 mg/dL
- Plasma HDL ([4]; 50 mg/kg p.o. QD): 110.76 ± 9.17 mg/dL
- Plasma LDL ([4]; 50 mg/kg p.o. QD): 14.78 ± 1.62 mg/dL
- Plasma Triglyceride ([4]; 50 mg/kg p.o. QD): 97.55 ± 11.60 mg/dL
- Absolute Liver Weight ([4]; 50 mg/kg p.o. QD): 2.34 ± 0.06 g
- Absolute Liver Weight (g) [table follows b2014 on epididymal adipose tissue weight] ([4]; 50 mg/kg p.o. QD): 2.58 ± 0.07 g
- Relative Epididymal Tissue Weight ([4]; 50 mg/kg p.o. QD): 0.061 ± 0.001 g
- Relative Liver Weight ([4]; 50 mg/kg p.o. QD): 0.056 ± 0.001 g
- 15 min Plasma Glucose (mg/dL), OGTT ([4]; 50 mg/kg, OGTT day 21): 670.72 ± 23.88 mg/dL
- 30 min Plasma Glucose (mg/dL), OGTT ([4]; 50 mg/kg, OGTT day 21): 560.85 ± 37.42 mg/dL
- 60 min Plasma Glucose (mg/dL), OGTT ([4]; 50 mg/kg, OGTT day 21): 485.98 ± 32.31 mg/dL
- 120 min Plasma Glucose (mg/dL), OGTT ([4]; 50 mg/kg, OGTT day 21): 378.40 ± 18.24 mg/dL
- glucose area under the curve (AUC), OGTT ([4]; 50 mg/kg, OGTT day 21): 57436.00 ± 2283.79 mg·min/dL
- Fasting Plasma Glucose (mg/dL), OGTT ([4]; 50 mg/kg): 204.64 ± 29.60 mg/dL
- decrease in the plasma glucose compared to vehicle control (OGTT) ([4]; 50 mg/kg, significant): 14%
- fasting blood glucose levels compared with vehicle control, dose dependence ([4]; 30 & 50 mg/kg p.o. QD, day 21, 28, and 36): dose-dependent decrease
- clinical signs, morbidity, mortality ([4]; 30 and 50 mg/kg oral, daily for 36 days): no observations of clinical signs or morbidity, and no mortality
- glucose as measured by area under the curve (AUC), dose dependence ([4]; 30 and 50 mg/kg, OGTT day 21): dose dependent decreases
- pAMPK/pACC/AMPKα2γ3 expression [5]: can also induce
- toxicity compared to reference compounds MK-8722 and PF-06409577 (G6PD release) [6]: less toxicity
